Measurements from US20070248705A1, “Agents for Activating the Transcription Factor Nrf2 and Foods Having Such Function” (KIRIN BEER KABUSHIKI KAISHA, priority 2004, published 2007).

Legend:
Assay type in all cases: cell-based, mouse
[1] = test system: NAD(P)H:quinone oxidoreductase (NQO1); experiment: Expression of genes controlled by Nrf2 in RAW264.7: NQO1; conditions: RAW264.7, 25 μM, 20 hours
Procedure: (§1) A mouse macrophage cell line RAW264.7 was seeded on a φ60 mm dish (9×10^5 cells), 2 ml of a D-MEM medium (Invitrogen) supplemented with 10% fetal bovine serum (HyClone) and penicillin-streptomycin (100 units/ml and 100 μg/ml, respectively; Sigma) was added, and the dish was incubated at 37° C. in an atmosphere of 5% CO2 for 2 days. The medium was replaced with a fresh medium containing individual samples and incubation was continued for another 20 hours. Then, the total RNA was prepared using TRIzol (Invitrogen) and purified using a RNeasy Mini kit (Qiagen) and an RNase-free DNase set (Qiagen). Further, cDNA was synthesized from 5 μg of the purified total RNA using a Thermo Script RT-PCR system (Invitrogen), and the amount of mRNA expression of various genes was determined using a FastStart DNA Master SYBR Green I kit (Roche) and a Light Cycler (Roche).
(§2) The amount of expression of the various genes was corrected by the amount of expression of the housekeeping gene PO and calculated as a relative expression level (n=2, mean±standard deviation). […]

TNF-α = experiment: Suppression of TNF-α production by macrophages (TPA and IFN-γ); conditions: RAW264.7, TPA 400 nM and IFN-γ 10 units/ml, 5, 10, 20, and 40 μM, 24 hours
Procedure: A mouse macrophage cell line RAW264.7 (4×10^4 cells/well) was seeded on a 96-well plate, […] of a D-MEM medium (Invitrogen) containing each sample, 10% fetal bovine serum (HyClone), and penicillin-streptomycin (100 units/ml and 100 μg/ml, respectively; Sigma) was added, and the plate was incubated at 37° C. in an atmosphere of 5% CO2 for 4 hours. Then 150 μl of a medium containing TPA (phorbol 12-tetradecanoate 13-acetate, Sigma), mouse IFN-γ (interferon-γ, eBioscience), and each sample was added and incubation was carried out for 24 hours. TPA and IFN-γ were added at a final concentration of 400 nM and 10 units/ml, respectively. As samples, isomerized hop extract was added at a concentration of 5, 10, 20, and 30 μ/ml and isohumulone (IH(F)) and isohumulone (IcH(G)) were added individually at a concentration of 5, 10, 20, and 40 μM.
After completing incubation, the amount of TNF-α in the culture fluid was measured using a mouse TNF-α ELISA kit(eBioscience). The amount of TNF-α was expressed as a relative value by setting the value for the control as 100% (n=3, mean±standard variation). As a positive control, 15dPGJ2 (Cayman Chemical) was used.

[2] = test system: glutathione S-transferase mu1 (GSTM1); experiment: Expression of genes controlled by Nrf2 in RAW264.7: GSTM1; conditions: RAW264.7, 25 μM, 20 hours
Procedure: as §1, §2

[3] = test system: thioredoxin reductase 1 (TXNRD1); experiment: Expression of genes controlled by Nrf2 in RAW264.7: TXNRD1; conditions: RAW264.7, 25 μM, 20 hours
Procedure: as §1, §2

Nrf2 = Nrf2 activation in ARE reporter assay system, RAW264.7; conditions: RAW264.7, 5 μM, 24 hours
Procedure: To construct the reporter plasmid pGL3-mARE3A, a double-stranded oligo DNA with 3 repeats of mouse NQO1-derived ARE (antioxidant response element) to which Nrf2 is believed to bind was constructed and inserted into the MluI-NheI site of the firefly luciferase reporter vector pGL3-promoter vector (available from Promega).
The double-stranded oligo DNA containing AREs was prepared by chemically synthesizing two single-stranded oligo DNAs, 5 ′-[…] G-3′ (SEQ ID NO: 1) and 5′-[…]-3′(SEQ ID NO: 2), and annealing them. Further, DNA sequence analysis confirmed that the product obtained was the plasmid of interest. Next, a mouse macrophage cell line RAW264.7 (available from American Type Culture Collection) was seeded on a 12-well plate (4×10^5 cells/well), 0.8 ml of an RPMI1640 medium (Invitrogen) supplemented with 10% fetal bovine serum (HyClone) and penicillin-streptomycin (100 units/ml and 100 μg/ml, respectively; Sigma) was added, and the plate was incubated at 37° C. in an atmosphere of 5% CO2 overnight. […] The cells were broken using a Dual-Luciferase reporter assay system (Promega) and then firefly luciferase activity and renilla luciferase activity were measured using a luminometer (Luminous CT-9000D, Dia-Iatron). […]

catalase 1 (CAT1) = experiment: Expression of genes controlled by Nrf2 in RAW264.7: CAT1; conditions: RAW264.7, 25 μM, 20 hours
Procedure: as §1, §2

CD36 = experiment: Expression of genes controlled by Nrf2 in RAW264.7: CD36; conditions: RAW264.7, 25 μM, 20 hours
Procedure: as §1, §2

## CC(C)=CCC(=O)C1(O)C(O)=C(C(=O)CC(C)C)C(=O)C1CC=C(C)C (stereo not shown) [IH (F), isohumulone]
[1]
  expression of NQO1: augmented the expression
TNF-α
  TNF-α production: concentration-dependently suppressed
[2]
  expression of GSTM1: augmented the expression
[3]
  expression of TRNRD1: augmented the expression
Nrf2
  Nrf2 activation activity (relative luciferase activity): confirmed the activation
Catalase 1 (CAT1)
  expression of CAT1: augmented the expression
CD36
  expression of CD36: augmented the expression
